The results in this text go back to patent publication EP4427807A1, “N-BRIDGED DIAZOCINE ANALOGUES OF CARBAMAZEPINE TO CONTROL NEURONAL ACTIVITY WITH LIGHT AND APPLICATIONS THEREOF” (Fundació Institut de Bioenginyeria de Catalunya (IBEC), priority 2023, dated 2024).

Series [1] in a line: Quantification of photostationary states (PSS) by HPLC at the isosbestic point. To be noted: for ratio between the two isomers: cis (Z) / ratio between the two isomers: trans (E): HPLC. The format is physicochemical. Here is the method: High-performance Liquid Chromatography (HPLC) analysis were performed with a Waters Alliance e2695 Separation Module paired with a Waters 2998 UV/vis Photodiode Array Detector (Diode array 190-800 nm) and a Waters AQUITY QDa Mass Detector (positive ionization ESI+). Samples were injected on a XSelect CSH C18 […] 4.6x50 mm analytical column with the following mobile phases, respectively called line A and B: water with formic acid 0.1% (v/v) and acetonitrile with formic acid 0.1% (v/v). The injections were eluted with the following method: flow 1.6 mL/min, gradient 0.00-4.50 min, 5-100% B; 4.50-5.00 min, 100-5% B.
(§1) The photochromic response was characterized by the absorption spectra after irradiation with LEDs at λ = 365 nm, 380 nm, 420 nm, 460 nm, 500 nm. The maximal changes in the spectra were associated to the optimal λ to isomerize from Z to E and vice versa. Resistance to photofatigue was tested by cycles of illuminations between the optimal λ. The kinetics of the spontaneous relaxation in the dark (time course of absorption at a fixed λ) was measured to quantify the relaxation lifetime by fitting the plots to an exponential decay curve. The UV-vis absorption analysis for the photochromic characterization has been carried out at room temperature. Stock solutions were prepared in the concentration of 10 mM in DMSO. The solutions used for the measurements were obtained by diluting the stock solutions in PBS at the desired final concentration (in the range of 30 µM and 50 µM). Finally, the photostationary states (PSS) were quantified using HPLC at the λ corresponding to the isosbestic point.
The quantification of photostationary states (PSS) has been measured by HPLC analysis. The peaks at the Diode Array have been detected and integrated at the wavelength corresponding to the isosbestic point.

Series [2] in a line: Photochemical characterization by UV-vis absorption (photoisomerization, thermal relaxation in the dark, photofatigue). The format is physicochemical.
Description: All reagents and solvents were purchased from Sigma-Aldrich and Cymit Quimica S.L. and were used without any further purification. Reactions were monitored by analytical thin layer chromatography (TLC) on commercial silica gel 60 F254 aluminum foils 20 x 20 cm (Merck). Spots were visualized under 254 or 365 nm UV lamp and/or with the use of an appropriate stain (ninidrine solution, Dragendorff reagent, alkaline potassium permanganate solution or phosphomolybdic acid solution 5% in ethanol). Compounds were purified by flash chromatography on PanReac Applichem silica gel 60 (40-63 µm) as stationary phase; the mobile phases are specified for each compound. All the UV/vis spectra and experiments were registered with Shimadzu UV-1800 UV-VIS spectrophotometer using quartz cuvettes (10 mm light path).
as §1, with “The” for “The photochromic response was characterized by the absorption spectra after irradiation with LEDs at λ = 365 nm, 380 nm, 420 nm, 460 nm, 500 nm. The”

The test system of series [3] is primary hippocampal neurons. Briefly: Current clamp recording of action potential firing in cultured primary hippocampal neurons. Conditions: Rattus norvegicus, Hippocampal neuron. The format is cell-based, Sprague-Dawley rat. Here is the method:
Procedures were performed in accordance with the European guidelines for animal care and use in research and were approved by the Animal Experimentation Ethics Committee at the University of Barcelona. Sprague-Dawley rat pups (P 1-5) were sacrificed by decapitation, hippocampi were isolated and treated with 0.1% trypsin in HBSS (10 min, 37°C). Neurons were plated on Poly-D-Lysine (PDL)-coated 16 mm coverslips (0.5-1 x 10^5 cells) and incubated at 37°C, 5% CO2 for 1,5 hours (to allow cells adhesion) in MEM supplemented with heat-inactivated FBS (5%), heat-inactivated HS (5%), penstrep (10 Ul/ml), L-glutamine (2mM) and glucose (20mM). Cells were cultured in Neurobasal A medium, supplemented with B-27 (5%), penstrep (5 Ul/ml), glutaMAX (0,5x) and glucose (15mM). On DIV 3 cultured cells were treated with 1 µM of Ara-C to prevent proliferation of non-neuronal cells. 50% of the maintenance medium was exchanged every 4 days.
Whole-cell recordings were performed at room temperature using an EPC-10 amplifier (HEKA Elektronik, Germany) and Patch Master software (HEKA). […] Firing of primary hippocampal neurons was recorded in current clamp configuration. […]
Data was analyzed using Igor Pro 6.05 (WaveMatrics, USA) and Origin 8.0 (OriginLab, USA) software. […] Statistical difference between groups was evaluated with Mann-Whitney test and was considered significant at the value of P below 0.05.

In series [4] the test system is zebrafish (Danio rerio) larvae. In words: Behavioural study (swimming activity) in zebrafish larvae under light cycles. The format is in vivo. Here is the method:
Wild-type zebrafish embryos (Tupfel long-fin strain) were purchased from the animal facility of the Barcelona Biomedical Research Park (PRBB) and raised in darkness for 7 days at 28 °C in UV filtered tap water in Petri dishes (daily cleaned and refilled). Animal development was checked every 24 hours. Unhealthy or abnormal embryos and larvae were removed and euthanatized in tricaine methanosulfonate (400 mg/l). All experiments and procedures were conducted according to the European Directive 2010/63/EU.
Behavioral studies were conducted on wild-type zebrafish larvae at 7 days post-fertilization (dpf). Vehicle and compounds were added with a multichannel pipette to exclude differences related to a delay in the application of each solution. Movements were recorded and analyzed using the ZebraBox tracking system and the ZebraLab software (ViewPoint Life Science, France). On the morning of the test, 7-dpf larvae were moved into a new batch of fresh water and checked for motility capabilities and possible physical mutations. Larvae were then randomly divided into control and treatment groups. Each individual was placed in a separate well of a 96-well plate, each containing 200 µl of fresh UV filtered water and left undisturbed in the dark for 30 min to get acquainted with the new setting (habituation time). Afterwards, 100 µL of water were removed from each well and replaced with 100 µl of a double concentrated vehicle or treatment solution. At this point, the plate was inserted into the ZebraBox and the recording period started. Animals were exposed to controlled cycles of dark, 380 nm, 420 nm, 500 nm wavelengths or with a halogen lamp (warm white light), using the illumination protocols represented by coloured-shaded areas in their respective graphs (see figures). Illumination at 380, 420 and 500 nm was performed with a built-in array of 12 LEDs placed 12 cm away from the multiwell plate. The halogen lamp used was the Volpi Intralux 4000 (115 W). Light intensities, measured with a Newport 1916-C optical power meter coupled to a Newport 918D-SL-OD3R detector, were 0.21 mW·cm^-2 (380 nm), 2.43 mW·cm^-2 (420 nm) and 0.69 mW·cm^-2 (500 nm). All experiments were conducted between 12.00 and 15.00 pm (UTC+01:00).
Alterations of locomotor activity were determined by monitoring and measuring fast movements, swimming distances and duration of high-speed swimming. In particular, the dependent variables measured included: total distance travelled, distance travelled at ≤ 2 mm·s^-1, distance travelled at 2-6 mm·s^-1, distance travelled at ≥ 6 mm·s^-1, time spent moving, time spent freezing, and number of bursts. The arbitrary cut-off for motility (6 mm·s^-1) was chosen because no variance was found among the groups at lower speeds. Figures show distances travelled over 6 mm·s^-1 and total movements (addition of movements below cut-off high speed swimming) were not considered to limit the error of the video recording on minimal movements. Data were analysed by two-way ANOVA with Tukey's post-hoc test for statistical significance (GraphPad Prism 6).

Setting [5] is: after irradiation at 400 nm for 3 minutes, 374 nm.
Setting [6] is: after irradiation at 500 nm for 3 minutes, 374 nm.
Where [7] appears, read: benchtop dark condition, isosbestic wavelength 374 nm.

Entries after “also recorded” stand apart in the source; their conditions may differ. Like-named read-outs stand apart in the source and are kept apart here.

`NC(=O)N1Cc2ccccc2/N=N\c2ccccc21` [compound of formula (II), (Z)-dibenzo[c,g][1,2,5]triazocine-11(12H)-carboxamide]: the “ratio between the two isomers: cis (Z)” value is recorded as 49% in series [1] (setting [5]), not below 99% in series [1] (setting [6]) and not below 99% in series [1] (setting [7]). Further, the entries for the “ratio between the two isomers: trans (E)” value in series [1] (setting [5]), in series [1] (setting [6]) and in series [1] (setting [7]) were 51%, “not detected” and “not detected”, respectively. In addition, the “isomer present in the dark” value in series [1] (in the dark, at benchtop conditions) was “fully converted into the Z inactive isomer”. Besides, in series [1] (irradiation at ≥ 500 nm), the “E to Z back-isomerization” value was “full back-isomerization to the Z inactive form”. Further, the “E to Z isomerization” value in series [2] (90 W EPV halogen lamp (600-700 nm), after one minute irradiation) is recorded as “full conversion”; in series [2] (590 nm LED, over 1 h irradiation), “quantitative conversion to the Z isomer”. Besides, the “half-life for relaxation in the dark t1/2” value in series [2] (dark conditions, PBS 0.01M, 25°C) turned out to be 3.2 h. In addition, the “resistance to several cycles of illumination (photofatigue)” value in series [2] (several cycles of illumination) is reported as “without degradation or loss in photochromic properties; also recorded: without loss in absorption or degradation”. The activity at 30 µM in series [3] (spontaneously firing neurons, without blue light (Fig 2B: 500 nm), P > 0.05, mean ± SD, read-out: frequency of the action potentials generation, % from control) came to 72 ± 5%; in series [3] (under blue light (400 nm) illumination, P < 0.01, n=4, mean ± SD, read-out: frequency of the action potentials generation (firing), % from control), 28 ± 13%. In series [4] (1 µM, after the third illumination with blue light (420 nm)), the distance swum result was “significant increase of the distance swum”. Moreover, the swimming distances entry in series [4] (10 µM, average of all green (500 nm) periods) is recorded as “slightly increased”; in series [4] (all concentrations (1, 10, 50 µM), green light (500 nm), each period compared individually to control) it was “did not alter significantly the swimming distances”. Also, the swimming activity result in series [4] (10 µM, under blue light (420 nm)) is on record as “increasing the activity of the larvae”; in series [4] (10 µM, under green illumination (500 nm)), “returning to control levels”; in series [4] (50 µM, first blue light (420 nm) illumination periods, effect reduced with consecutive blue illumination) it was “significantly hyperactive”. Further, in series [4] (1-50 µM, 7 dpf zebrafish larvae), the “signs of toxicity or distress in the larvae” value is “No signs of toxicity or distress”. In series [4] (first 20 minutes of the experiment, full darkness, 7 dpf larvae), the “effect on swimming behaviour in the dark” value is recorded as “no effects”. Moreover, the “hyperactivity of treated larvae” value in series [4] (illumination with warm white light (halogen lamp), all treated groups) is “blocked the hyperactivity”.
